From patent US20100273750A1, “SEROTONIN RECEPTOR ANTAGONISTS FOR TREATING ARTHRITIS” (IMPERIAL INNOVATIONS LIMITED, priority 2007, published 2010)
Entries after “also recorded” stand apart in the source; their conditions may differ. Counter-ions that a name gives are not always drawn.

Columns and labels:
[1] = tested on: RA synovial membrane cultures; assay: Spontaneous cytokine release from RA synovial membrane cultures (ELISA); type: cell-based, human
Description: (§1) Macrophages or RA synovial membrane cell cultures were stimulated with 10 ng/ml chloroform-extracted LPS, 10 ng/ml Pam3, 10 ng/ml Flagellin, 10 ng/ml Malp-2, 20 μg/ml poly IC, 2 μM CpG (human/mouse) or 1 μg/ml R-848 in complete media for 6 h. Supernatants from RA cultures were harvested after 24 hours.
(§2) Sandwich ELISAs were employed to measure TNF, (Pharmingen, UK). IP-10 (R&D, USA) and IL-1β (Bioscource. USA). Absorbance was read on a spectrophotometric ELISA plate reader (Labsystems Multiscan Biochromic) and analyzed using Ascent software V2.6 (Thermo Labsystems, Cambridge, United Kingdom). All results are expressed as the mean cytokine concentration±SD obtained from triplicate cultures per condition.
(§3) RA synovial membrane cells were isolated from patients undergoing joint replacement surgery as previously described (Foxwell et al., Proc. Natl. Acad. Sci. USA 95, 8211-8215, 1998). All patients gave written informed consent and the study was approved by the local ethics committee. Immediately after isolation, cells were used for mRNA analysis, stained by FACS or cultured at 1×10^5 cells/well in 96-well tissue culture plates (Falcon, UK) in RPMI 1640 containing 10% (v/v) FBS and 100 U/ml penicillin/streptomycin. Primary human synovial fibroblasts were cultured as described previously (Butler et al. Eur. Cytokine Netw. 5:441-8, 1994). Peripheral blood monocytes were isolated and cultured as previously described (Foxwell et al. Proc. Natl. Acad. Sci. USA 95, 8211-8215, 1998). Macrophages were derived from monocytes after differentiation for 4 days with 100 ng/ml M-CSF (PeproTech, UK). The mouse macrophage cell line RAW 264.7 was maintained in Dulbecco's modified Eagle's medium supplemented with 10% fetal bovine serum.
Rheumatoid arthritis synovial membrane cells were cultured for 24 hours in the presence of media alone or media containing 30 μg/ml mianserine hydrochloride. Supernatants were harvested and levels of cytokines (A) TNF (n=16) were measured by ELISA. […] A students paired t-test was used to analyse the data.

[2] = tested on: CIA model of rheumatoid arthritis; assay: Murine CIA model of rheumatoid arthritis; type: in vivo, Male DBA mice
Description: Male DBA mice (8-10 weeks of age) were immunized at the base of the tail intradermally with 200 μg type II collagen emulsified in CFA (Difco Laboratories, West Molesey, U.K.). The onset of arthritis was considered to be the day that erythema and/or swelling were first observed, and arthritic mice were given a daily clinical score per limb from 0 to 3, with 0=normal, 1=slight erythema and swelling, 2=pronounced edematous swelling and 3=joint deformity with ankylosis, resulting in a maximum score of 12 per animal. Mianserine treatment started on the day of onset and was administered daily for 7 days. Paw swelling was assessed by measuring hind paw thickness using calipers.
The experiment was started at the onset of arthritis (day 1). Mice were given an interperitoneal injection of vehicle (PBS), 4 mg/kg or 10 mg/kg of mianserine hydrochloride once a day for 7 days. Mice were assessed for (FIG. 2A) clinical score and (FIG. 2B) paw swelling on a daily basis.

[3] = tested on: TLR4 ligand LPS induced TNF; assay: LPS induced TNF production in primary human macrophages (ELISA); type: cell-based; details: 30 μg/ml, 30 minutes preincubation, 10 ng/ml LPS for 6 hours; hydrochloride
Description: as §1, with “hours. All reagents other than LPS were free from LPS contamination as assessed using the limulus amebocyte lysate (LAL) assay from Cambrex (USA).” for “hours.”
as §2, §3
Primary human macrophages, murine RAW 264.7 cells and synovial fibroblasts were incubated with 30 μg/ml mianserine hydrochloride for 30 minutes and then stimulated for 6 hours with TLR ligands (R-848, Pam3, LPS, flagellin, malp-2, poly IC or CpG).

[4] = tested on: TLR ligands Pam3, flagellin, Malp-2 induced TNF; assay: Pam3, flagellin or Malp-2 induced TNF production in primary human macrophages (ELISA); type: cell-based; details: 30 μg/ml, 30 minutes preincubation
Description: as §1, with “hours. All reagents other than LPS were free from LPS contamination as assessed using the limulus amebocyte lysate (LAL) assay from Cambrex (USA).” for “hours.”
as §2
(§4) RA synovial membrane cells were isolated from patients undergoing joint replacement surgery as previously described (Foxwell et al., Proc. Natl. Acad. Sci. USA 95, 8211-8215, 1998). All patients gave written informed consent and the study was approved by the local ethics committee. Immediately after isolation, cells were used for mRNA analysis, stained by FACS or cultured at 1×10^5 cells/well in 96-well tissue culture plates (Falcon, UK) in RPMI 1640 containing 10% (v/v) FBS and 100 U/ml penicillin/streptomycin. […]

[5] = tested on: TLR3 ligand poly IC induced IP-10; assay: Poly IC induced IP-10 production in human macrophages (ELISA); type: cell-based; details: 30 μg/ml, 20 μg/ml poly IC for 6 hours; hydrochloride
Description: as §1, with “hours. All reagents other than LPS were free from LPS contamination as assessed using the limulus amebocyte lysate (LAL) assay from Cambrex (USA).” for “hours.”
as §2, §3
Primary human macrophages were incubated with 5 μg/ml of GBR12909, 5 μg/ml of clotrimazole, 5 μg/ml of Propidium iodide (PI), 30 μg/ml mianserine hydrochloride and 30 μg/ml promazine hydrochloride for 30 minutes and then stimulated for 6 hours with the TLR4 ligand LPS (FIG. 7A), with R848 a TLR7/8 ligand (FIG. 7, Graph B), or with poly IC a TLR3 ligand (FIG. 7C). Supernatants were collected and measured for TNF or IP-10.

[6] = tested on: TLR9 ligand CpG induced TNF; assay: CpG induced TNF production in murine RAW 264.7 macrophages (ELISA); type: cell-based; details: 30 μg/ml, 30 minutes preincubation, CpG for 6 hours, RAW 264.7, n=2
Description: as §1, with “hours. All reagents other than LPS were free from LPS contamination as assessed using the limulus amebocyte lysate (LAL) assay from Cambrex (USA).” for “hours.”
as §2, §4

[7] = tested on: TLR3 induced NF-κB activation; assay: NF-κB luciferase reporter assay in synovial fibroblasts stimulated with poly IC; type: cell-based, human; details: 30 μg/ml, 30 minutes preincubation, 20 μg/ml Poly IC for 6 h, n=3
Description: (§5) Synovial fibroblasts were cultured in a 96-well plate, infected with recombinant adenovirus containing a NF-κB Luciferase reporter gene at a MOI of 200:1. The cells were allowed to rest for 24 h prior to stimulation. Cells were preincubated with 30 μg/ml mianserine hydrochloride for 30 minutes, then stimulated with 10 ng/ml LPS or 20 μg/ml Poly IC for 6 h. The cells were then washed once in PBS and lysed with 100 μl of CAT lysis buffer (0.65% (v/v) of Nonidet P-40, 10 mM Tris-HCl pH 8, 0.1 mM EDTA pH 8, 150 mM NaCl). 50 μl of cell lysate were mixed with 120 μl luciferase assay buffer (25 mM Tris-phosphate pH 7.8, 8 mM MgCl2, 1 mM EDTA, 1% (v/v) Triton X-100, 1% (v/v) glycerol, 1 mM DTT, 0.5 mM ATP) in the well of a luminometer cuvette strip. Luciferase activity was measured with a Luminometer (Thermo Labsystems, U.K.) by adding […] of luciferin (Bright-Glo luciferase assay system; Promega, Madison, Wis.) per assay point.
(§6) RA synovial membrane cells were isolated from patients undergoing joint replacement surgery as previously described (Foxwell et al., Proc. Natl. Acad. Sci. USA 95, 8211-8215, 1998). All patients gave written informed consent and the study was approved by the local ethics committee. […]

[8] = tested on: LPS induced NF-κB activation (TLR4); assay: NF-κB luciferase reporter assay in synovial fibroblasts stimulated with LPS; type: cell-based, human; details: 30 μg/ml, 30 minutes preincubation, 10 ng/ml LPS for 6 h, n=3
Description: as §5, §6

[9] = tested on: RA synovial membrane cultures; assay: Spontaneous cytokine release from RA synovial membrane cultures (ELISA); type: cell-based, human; details: 24 hours
[10] = tested on: TLR7/8 ligand R-848 induced TNF; assay: R-848 induced TNF production in primary human macrophages (ELISA)
[11] = 4 mg/kg interperitoneal once a day for 7 days
[12] = 10 mg/kg interperitoneal once a day for 7 days

inhibition of TLR3 induced NF-κB activation [7]: significantly inhibit
SMILES: CN1CCN2c3ccccc3Cc3ccccc3C2C1 (stereo not shown) [mianserine hydrochloride]
inhibition of TNF, dose dependence ([1]; 10 μg/ml, 20 μg/ml and 30 μg/ml): dose dependently inhibited
inhibition of spontaneous TNF production ([1]; 30 μg/ml, 24 hours): able to inhibit
decrease in the levels of TNF ([1]; 30 μg/ml, 24 hours, n=16, p=0.0007): 59%±13
clinical score [2, 11]: did not produce as great an effect as the 10 mg/kg group
hind paw swelling [2, 11]: no significant improvement
histology scoring [2, 11]: an improvement in the score
hind paw swelling [2, 12]: significant improvement throughout the study
histology scoring [2, 12]: significant effect
histology of hind paws: bone destruction and cell infiltration ([2]; interperitoneal once a day for 7 days): clear reduction in both bone destruction and cell infiltration into the joint
clinical score ([2]; interperitoneal once a day for 7 days from onset, statistics for 10 mg/kg group versus vehicle, n=7): significant improvement to the control group from day 3 onwards
inhibition of LPS induced TNF production [3]: not and None of the drugs tested were able to inhibit
decreased production of TNF in response to Malp-2 ([4]; Malp-2 for 6 hours): not
decreased production of TNF in response to flagellin ([4]; flagellin for 6 hours): not
inhibition of Poly IC induced IP-10 production [5]: inhibits TLR3 induced signalling; also recorded: able to inhibit
inhibition of CpG induced TNF production [6]: able to inhibit TNF production
effect on LPS induced NF-κB activation [8]: no effect
inhibition of spontaneous TNF production ([9]; 20 μg/ml): able to inhibit
decrease of TNF levels (positive control) [9]: able to decrease the TNF levels
inhibitory effect on TNF production at rising R-848 ([10]; 5 μg/ml with 0.3, 1, 10 or 20 μg/ml R-848, 6 hours): diminished with increasing concentrations of R-848
inhibition of R-848 induced TNF production ([10]; 30 μg/ml, 30 minutes preincubation, 1 μg/ml R-848 for 6 hours, hydrochloride): decreased production of TNF; also recorded: able to suppress
mode of inhibition of R-848 induced TNF production ([10]; 2.5, 5 or 10 μg/ml with 0.3, 1, 10 or 20 μg/ml R-848, 6 hours, three donors): competitively inhibits
